Test results: patent US20070238700A1, “N-PHENYL-1,1,1-TRIFLUOROMETHANESULFONAMIDE HYDRAZONE DERIVATIVE COMPOUNDS AND THEIR USAGE IN CONTROLLING PARASITES” (priority 2006, published 2007)
Like-named read-outs stand apart in the source and are kept apart here.

What was measured:
Ctenocephalides felis [1] = tested on: Ctenocephalides felis
How it was run: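 Adult cat fleas (3–7 days post-emergence), 15 per flask in ≥4 replicates, exposed to a dried acetone residue at 1.26 μg/cm^2 on a Coatasil-treated glass flask base. Held at 25±1° C, 75±5% humidity; mortality (immobile or unable to right) scored at 8, 24 and/or 48 h.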

Rhipicephalus sanguineus [2] = assay: Dose response protocol for topical application on brown dog ticks (LD50); settings: 24 h mortality, probit analysis
Procedure: e) Dose response protocol for topical application on brown dog ticks (Rhipicephalus sanguineus): The test determines the level of insecticidal activity of sample compounds or formulations when applied topically on brown dog ticks. Sample compounds were stored prior to use in a freezer (−5±1° C.), unless otherwise specified.
• Mortality: A tick is defined as dead after it gives no apparent response when touched lightly or gently breathed upon, while observed for 30 seconds. • LD50 (Lethal Dose 50): The dose of a topically applied treatment at which 50% of the dog ticks are killed. • Reference compound: To assess an experimental compound for significant acaricidal activity a single dose level is chosen, which is based upon known results from previous experiments using a commercially available active i.e., a reference compound. The reference compound selected is one in common use, and one that has a similar mode of action against the Brown Dog Tick (i.e., the test species), • Recovery container: A recovery container consists of a 500 ml round plastic container measuring 115 mm diameter and 70 mm height, with a tight fitting lid that has 10 small (˜1 mm) holes inserted for air exchange. A 90 mm diameter piece of filter paper was placed on the bottom of the container and moistened with 1 mL of distilled water.
Adult, mixed sex, Brown Dog Ticks (Rhipicephalus sanguineus) were reared as follows: (i) cultured, (ii) transferred unfed, to a testing laboratory, and (iii) then maintained under controlled conditions (i.e., temp. 18°±2° C., humidity 75±5% RH). The ticks used were selected for vigor prior to testing, i.e., capable of actively walking and responsive to being touched or gently breathed upon.
During the testing, the temperature was maintained at 25±1° C. and the humidity was ambient. Seven dose levels (concentrations) of sample compound, in the form of serial dilutions in acetone, were derived from a pilot study and covered a range that produced very low to very high mortality. Groups of ten ticks were treated topically (on the abdomen) with 1 μL of a single dose level of the sample compound. Each test was replicated four times, i.e., employing a total of 40 ticks per dose level of each sample compound. As a control, ten ticks were treated with solvent only (acetone) for each test. Following the treatment, the ticks were held in recovery containers maintained under appropriate rearing conditions for 24 hours. Mortality resulting from the treatments was recorded at 24 hours. […] Press, London (1971).]

Rhipicephalus sanguineus [3] = assay: Rapid screening protocol for topical application on brown dog ticks (% mortality); settings: data from laboratory 2
How it was run: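 Mixed-sex unfed adult ticks each received 1 μL test sample in acetone on the abdomen at a single screening dose chosen above the reference LD90 (fipronil 10 μg/tick), with acetone-only controls; 4 replicates of 10 ticks. Held 24 h at 25±1 °C; ticks unresponsive to light touch over 1 min scored dead, pooled as % mortality.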

Ctenocephalides felis [4] = assay: Ctenocephalides felis adulticide assay: C. felis dose response (LC50)
Text: c) Ctenocephalides felis Adulticide Assay: C. felis Dose Response
The purpose of this example was to determine the LC50 when cat fleas were contacted with a glass surface treated with sample compounds or formulations prepared as described above. […] The test species was the cat flea (Ctenocephalides felis). The strain used was obtained from external suppliers as pupae and held in the laboratory under testing conditions until the adults had emerged. Fifteen (15) fleas were used in a minimum of four replicates for each dose level (total of 60 fleas per dose level). The insects were selected to be in the adult life stage, aged between 3 and 7 days post emergence.
The compounds to be tested were dissolved in acetone just prior to testing. Samples of compounds were stored in a refrigerator (5±1° C.) unless otherwise specified. During the mortality testing, the temperature was maintained at 25±1° C. Humidity was maintained at 75±5%. The base (area=159 mm^2) of a 100 mL glass Erlenmeyer (conical) flask provided the treatment surface. Flasks were pretreated with Coatasil™ glass treatment to maximise bio-availability of test compounds by preventing them from binding to the glass surface.
The base of the 100 mL Erlenmeyer flask was treated with 0.5 mL of test sample in acetone and gently swirled. This volume was sufficient to cover the base of the flask. Flasks were left to dry for 24 hours before flea exposure. Adult cat fleas were lightly anaesthetised by cooling and then placed into a sorting chamber, which allowed fleas to revive and jump into the Erlenmeyer flasks. Fifteen (15) adult cat fleas were collected in each flask. The top of the flasks were then covered in Parafilm™ and small holes made to allow gas exchange. A 0.5 mL volume of acetone was applied to the base of an Erlenmeyer flask and the testing proceeded in the same manner described above. Cat fleas in the treatment containers were held under testing conditions for 24 hours. Mortality resulting from the treatments was recorded at 8 and 24 hours.

## CC(=NN(C)c1cc(Cl)cc(Cl)c1)c1cc(Cl)ccc1NS(=O)(=O)C(F)(F)F [Compound 99]
Ctenocephalides felis [1]
  C. felis Mortality (%) 8 h: 57%
  C. felis Mortality (%) 24 h: 100%
Rhipicephalus sanguineus [2]
  R. sanguineus LD50: 3.1 μg/tick
Rhipicephalus sanguineus [3]
  R. sanguineus Mortality (%) 24 h: 95%
Ctenocephalides felis [4]
  C. felis LC50: 1.9 ppm

## CC(=NN(C)c1cccc(Cl)c1Cl)c1cc(Cl)ccc1NS(=O)(=O)C(F)(F)F [Compound 100]
Ctenocephalides felis [1]
  C. felis Mortality (%) 8 h: 55%
  C. felis Mortality (%) 24 h: 100%
Rhipicephalus sanguineus [2]
  R. sanguineus LD50: 4.0 μg/tick
Rhipicephalus sanguineus [3]
  R. sanguineus Mortality (%) 24 h: 70%
Ctenocephalides felis [4]
  C. felis LC50: 1.7 ppm

## CC(=NN(C)c1ccc(Cl)cc1)c1cc(Cl)ccc1NS(=O)(=O)C(F)(F)F [Compound 105]
Ctenocephalides felis [1]
  C. felis Mortality (%) 8 h: 42%
  C. felis Mortality (%) 24 h: 100%
Rhipicephalus sanguineus [2]
  R. sanguineus LD50: 1.4 μg/tick
Rhipicephalus sanguineus [3]
  R. sanguineus Mortality (%) 24 h: 95%
Ctenocephalides felis [4]
  C. felis LC50: 3.0 ppm

## CC(=NN1CCCC1)c1cc(Cl)ccc1NS(=O)(=O)C(F)(F)F [Compound 116]
Ctenocephalides felis [1]
  C. felis Mortality (%) 8 h: 98%
  C. felis Mortality (%) 24 h: 100%
Rhipicephalus sanguineus [2]
  R. sanguineus LD50: 0.74 μg/tick
Rhipicephalus sanguineus [3]
  R. sanguineus Mortality (%) 24 h: 93%
Ctenocephalides felis [4]
  C. felis LC50: 2.66 ppm

## CCOC(=O)N(CC)N=C(C)c1cc(Cl)ccc1NS(=O)(=O)C(F)(F)F [Compound 125]
Ctenocephalides felis [1]
  C. felis Mortality (%) 8 h: 82%
  C. felis Mortality (%) 24 h: 100%
Rhipicephalus sanguineus [2]
  R. sanguineus LD50: 0.64 μg/tick
Rhipicephalus sanguineus [3]
  R. sanguineus Mortality (%) 24 h: 95%
Ctenocephalides felis [4]
  C. felis LC50: 3.62 ppm

## CCOC(=O)N(C)N=C(C)c1cc(Cl)ccc1NS(=O)(=O)C(F)(F)F [Compound 126]
Ctenocephalides felis [1]
  C. felis Mortality (%) 8 h: 55%
  C. felis Mortality (%) 24 h: 97%
Rhipicephalus sanguineus [2]
  R. sanguineus LD50: 0.69 μg/tick
Rhipicephalus sanguineus [3]
  R. sanguineus Mortality (%) 24 h: 100%
Ctenocephalides felis [4]; data from laboratory 1
  C. felis LC50: 1.84 ppm

## CCOC(=O)N(CC)N=C(CC)c1cc(Cl)ccc1NS(=O)(=O)C(F)(F)F [Compound 127]
Ctenocephalides felis [1]
  C. felis Mortality (%) 8 h: 100%
  C. felis Mortality (%) 24 h: 100%
Rhipicephalus sanguineus [2]
  R. sanguineus LD50: 0.54 μg/tick
Rhipicephalus sanguineus [3]
  R. sanguineus Mortality (%) 24 h: 100%
Ctenocephalides felis [4]
  C. felis LC50: 1.22 ppm

## CCC(=NN1CCCCC1)c1cc(Cl)ccc1NS(=O)(=O)C(F)(F)F [Compound 129]
Ctenocephalides felis [1]
  C. felis Mortality (%) 8 h: 27%
  C. felis Mortality (%) 24 h: 98%
Rhipicephalus sanguineus [2]
  R. sanguineus LD50: 0.52 μg/tick
Rhipicephalus sanguineus [3]
  R. sanguineus Mortality (%) 24 h: 98%
Ctenocephalides felis [4]
  C. felis LC50: 2.82 ppm

## CCC(=NN1CCCCC1)c1cc(Cl)ccc1NS(=O)(=O)C(F)(F)F [Compound 130]
Ctenocephalides felis [1]
  C. felis Mortality (%) 8 h: 34%
  C. felis Mortality (%) 24 h: 91%
Rhipicephalus sanguineus [2]
  R. sanguineus LD50: 1.08 μg/tick
Rhipicephalus sanguineus [3]
  R. sanguineus Mortality (%) 24 h: 98%
Ctenocephalides felis [4]
  C. felis LC50: 2.36 ppm

## CCN(N=C(C)c1cc(Cl)ccc1NS(=O)(=O)C(F)(F)F)C(=O)OC [Compound 139]
Ctenocephalides felis [1]
  C. felis Mortality (%) 8 h: 97%
  C. felis Mortality (%) 24 h: 100%
Rhipicephalus sanguineus [2]
  R. sanguineus LD50: 0.39 μg/tick
Rhipicephalus sanguineus [3]
  R. sanguineus Mortality (%) 24 h: 100%
Ctenocephalides felis [4]
  C. felis LC50: 5.14 ppm

## CCC(=NN(CC)C(=O)OC)c1cc(Cl)ccc1NS(=O)(=O)C(F)(F)F [Compound 140]
Ctenocephalides felis [1]
  C. felis Mortality (%) 8 h: 89%
  C. felis Mortality (%) 24 h: 100%
Rhipicephalus sanguineus [2]
  R. sanguineus LD50: 0.28 μg/tick
Rhipicephalus sanguineus [3]
  R. sanguineus Mortality (%) 24 h: 100%
Ctenocephalides felis [4]
  C. felis LC50: 3.70 ppm

## CC(=NN(C)c1cccc(C(F)(F)F)c1)c1cc(Cl)ccc1NS(=O)(=O)C(F)(F)F [Compound 203]
Ctenocephalides felis [1]
  C. felis Mortality (%) 8 h: 11%
  C. felis Mortality (%) 24 h: 98%
Rhipicephalus sanguineus [2]
  R. sanguineus LD50: 0.68 μg/tick
Rhipicephalus sanguineus [3]
  R. sanguineus Mortality (%) 24 h: 95%
Ctenocephalides felis [4]
  C. felis LC50: 1.30 ppm

## C/C(=N\N(C)C1CCCC1)c1cc(Cl)ccc1NS(=O)(=O)C(F)(F)F [Compound 211]
Ctenocephalides felis [1]
  C. felis Mortality (%) 8 h: 12%
  C. felis Mortality (%) 24 h: 85%
Rhipicephalus sanguineus [2]
  R. sanguineus LD50: 1.01 μg/tick
Rhipicephalus sanguineus [3]
  R. sanguineus Mortality (%) 24 h: 98%
Ctenocephalides felis [4]
  C. felis LC50: 1.9 ppm

## C/C(=N\N(C)C1CCCCC1)c1cc(Cl)ccc1NS(=O)(=O)C(F)(F)F [Compound 215]
Ctenocephalides felis [1]
  C. felis Mortality (%) 8 h: 8%
  C. felis Mortality (%) 24 h: 100%
Rhipicephalus sanguineus [2]
  R. sanguineus LD50: 1.29 μg/tick
Rhipicephalus sanguineus [3]
  R. sanguineus Mortality (%) 24 h: 73%
Ctenocephalides felis [4]
  C. felis LC50: 2.54 ppm

## CC(=O)N(CCC#N)/N=C(\C)c1cc(Cl)ccc1NS(=O)(=O)C(F)(F)F [Compound 221]
Ctenocephalides felis [1]
  C. felis Mortality (%) 8 h: 15%
  C. felis Mortality (%) 24 h: 100%
Rhipicephalus sanguineus [2]
  R. sanguineus LD50: 0.53 μg/tick
Rhipicephalus sanguineus [3]
  R. sanguineus Mortality (%) 24 h: 90%
Ctenocephalides felis [4]
  C. felis LC50: 2.2 ppm

## C/C(=N\N(CCC#N)C(=O)c1ccccc1)c1cc(Cl)ccc1NS(=O)(=O)C(F)(F)F [Compound 222]
Ctenocephalides felis [1]
  C. felis Mortality (%) 8 h: 5%
  C. felis Mortality (%) 24 h: 89%
Rhipicephalus sanguineus [2]
  R. sanguineus LD50: 0.56 μg/tick
Rhipicephalus sanguineus [3]
  R. sanguineus Mortality (%) 24 h: 88%
Ctenocephalides felis [4]
  C. felis LC50: 2.64 ppm

## CCCCCC(=O)N(CCC#N)/N=C(\C)c1cc(Cl)ccc1NS(=O)(=O)C(F)(F)F [Compound 224]
Ctenocephalides felis [1]
  C. felis Mortality (%) 8 h: 3%
  C. felis Mortality (%) 24 h: 100%
Rhipicephalus sanguineus [2]
  R. sanguineus LD50: 0.71 μg/tick
Rhipicephalus sanguineus [3]
  R. sanguineus Mortality (%) 24 h: 100%
Ctenocephalides felis [4]
  C. felis LC50: 3.54 ppm
